Measured values from article PMC10575921 (Nature Communications, 2023).
In brackets after ≈: the same amount, converted by molar mass. Several values for one entry are separate records, joined by “and”; a condition that tells them apart may be missing. Identical values can stand only once. Like-named read-outs stand apart in the source and are kept apart here.

Assays:
[1] = target: T1, SARS-CoV-2 3CL^pro (Severe acute respiratory syndrome coronavirus 2, UniProt P0DTD1); test: biochemical; conditions: for inhibition at 1 µM: concentration 1000.00 nM; for inhibition at 3.125 µM: concentration 3125.00 nM
[2] = test system: SARS-CoV-2 Delta strain; test: microbe, parasite or virus in culture; assay type: cell-based
[3] = in vitro; conditions: African green monkey
[4] = test system: 413 human kinases
[5] = test system: Chinese hamster lung (CHL) cells
[6] = test system: human peripheral blood mononuclear cells (PBMCs)
[7] = test system: human primary hepatocytes; conditions: for % of vehicle control: primary hepatocyte cytotoxicity
[8] = test system: SARS-CoV-2 Omicron strain
[9] = both, cynomolgus monkey, in vivo
[10] = male, C57BL/6J, mouse, in vivo
[11] = male, C57BL/6J, in vivo
[12] = both, SD, rat, in vivo
[13] = both, cynomolgus monkey, in vivo; remark: listed apart in the source
[14] = test system: CYP3A
[15] = test system: human peripheral blood mononuclear cells (PBMCs); test: cells; conditions: PBMC
[16] = test system: human primary hepatocytes; test: cells; conditions: Hepatocyte
[17] = in vivo; conditions: both, Sprague-Dawley, rat
[18] = in vivo; conditions: both, cynomolgus monkey
[19] = in vivo; conditions: male, C57BL/6J, mouse, po
[20] = in vivo; conditions: both, SD, rat
[21] = in vivo; conditions: both, cynomolgus monkey; remark: listed apart in the source
[22] = test system: CYP3A4/5; test: in vitro; conditions: human, microsomes
[23] = in vitro; conditions: rat, plasma
[24] = in vitro; conditions: monkey, plasma
[25] = in vitro; conditions: mouse, plasma
[26] = test system: CYP enzymes (all tested); test: in vitro; conditions: human
[27] = test system: SARS-CoV-2 WIV04 strain; test: microbe, parasite or virus in culture; conditions: Severe acute respiratory syndrome coronavirus 2, Vero C1008, read-out: EC50^CP
[28] = test system: SARS-CoV-2 Omicron strain; test: microbe, parasite or virus in culture
[29] = target: T1, SARS-CoV-2 3CL^pro; assay type: biochemical
[30] = buffer, pH 7.4
[31] = concentration 31.25 nM, read-out: inhibition ratio (%)
[32] = concentration 500.00 nM, read-out: inhibition ratio (%)
[33] = 500.00 nM, read-out: inhibition ratio (%)
[34] = Severe acute respiratory syndrome coronavirus 2, Vero C1008, read-out: EC50 (nM) Mean
[35] = Severe acute respiratory syndrome coronavirus 2, Vero C1008
[36] = 15.63 nM, read-out: inhibition ratio (%)
[37] = 31.25 nM, read-out: inhibition ratio (%)
[38] = concentration 15.63 nM, read-out: inhibition ratio (%)
[39] = concentration 50000.00 nM, read-out: inhibition ratio (%)
[40] = concentration 100000.00 nM, read-out: inhibition ratio (%)
[41] = concentration […], read-out: inhibition ratio (%)

CC(C)(C)NC(=O)N[C@H](C(=O)N1C[C@@H]2CCC[C@@H]2[C@H]1C(=O)N[C@H](C#N)C[C@@H]1CCNC1=O)C(C)(C)C [compound 8]
IC50 ([1]; IC50): 50 nM
IC50 ([1]; IC50 (nM)): 49.2 nM and 55.8 nM and 45.8 nM
inhibition at 0.03125 µM [1, 31]: 37.9%
inhibition at 0.5 µM [1, 32]: 93.2%

CC(C)(C)NC(=O)N[C@H](C(=O)N1C[C@@H](c2ccccc2)C[C@H]1C(=O)N[C@H](C#N)C[C@@H]1CCNC1=O)C(C)(C)C [compound 5]
IC50 ([1]; IC50): 814 nM
IC50 ([1]; IC50 (nM)): 883 nM and 880 nM and 679 nM
inhibition at 5 µM ([1]; concentration 5000.00 nM, read-out: inhibition ratio (%)): 91.4%
inhibition at 10 µM ([1]; concentration 10000.00 nM, read-out: inhibition ratio (%)): 94.8%

CC(C)(C)[C@H](NC(=O)C1(F)CC1)C(=O)N1CC2(C[C@H]1C(=O)N[C@H](C#N)C[C@@H]1CCNC1=O)SCCS2 [compound 10]
inhibition at 0.5 µM [1, 33]: 94%
EC50 [2, 34]: 1100 nM
CC50 [3]: > 500000 nM

CC(C)(C)[C@H](NC(=O)C(F)(F)F)C(=O)N1CC2(C[C@H]1C(=O)N[C@H](C#N)C[C@@H]1CCNC1=O)SCCS2 [compound 9, simnotrelvir]
EC90^total [2]: 0.906 µg/mL (≈ 1.65 µM)
EC90 ([2]; Severe acute respiratory syndrome coronavirus 2, Vero C1008, read-out: EC90^total): 0.523 µg/mL
EC50 ([2]; read-out: EC50^CP): 34 nM
EC90 ([2]; read-out: EC90 (nM), single independent experiment): 290 nM and 382 nM
inhibition of 413 human kinases [4]: no significant inhibitory activities
chromosome aberration test (CA) result [5]: negative
IC50 or CC50: PBMC [6]: > 150000 nM
toxicity to human PBMCs [6]: no toxicity was observed
IC50 or CC50: PHHs ([7]; human): > 150000 nM
toxicity to human hepatocytes ([7]; human): no toxicity was observed
EC50 [8]: 44.9 nM
increase of AUC0-∞ by ritonavir [9]: 9.6 fold
increase of Cmax by ritonavir [9]: 3.9 fold
time plasma concentration maintained above EC90^total [10]: 24 h
exposure in the mouse brains [11]: moderate simnotrelvir exposure
time brain concentration covers EC50^total ([11]; mouse): > 8 h
time brain concentration covers EC90^total ([11]; mouse): more than 2 h
tolerability in two-week toxicity study [12]: well tolerated
tolerability in two-week toxicity study [13]: well tolerated
calculated metabolic contribution of CYP3A [14]: 87%
IC50 [15]: > 150000 nM
IC50 [16]: > 150000 nM
bioavailability ([17]; 15 mg/kg): 35.3%
half-life ([17]; 15 mg/kg): 0.45 h
Vd ([17]; iv, 15 mg/kg): 1.36 L/kg
clearance ([17]; iv, 15 mg/kg): 59.3 mL/min/kg
AUC(0-inf) ([17]; po): 9000 ng·h/mL
AUC(0-t) ([17]; po): 8920 ng·h/mL
Cmax ([17]; po): 2760 ng/mL
half-life ([17]; po): 1.99 h
AUC(0-inf) ([17]; po, 15 mg/kg): 1730 ng·h/mL
AUC(0-t) ([17]; po, 15 mg/kg): 1700 ng·h/mL
Cmax ([17]; po, 15 mg/kg): 1580 ng/mL
half-life ([17]; po, 15 mg/kg): 1.29 h
bioavailability ([18]; 5 mg/kg): 41.9%
half-life ([18]; 5 mg/kg): 1.7 h
Vd ([18]; iv, 5 mg/kg): 1.5 L/kg
clearance ([18]; iv, 5 mg/kg): 20.7 mL/min/kg
AUC(0-inf) ([18]; po): 17200 ng·h/mL
AUC(0-t) ([18]; po): 17000 ng·h/mL
Cmax ([18]; po): 2440 ng/mL
half-life ([18]; po): 2.38 h
AUC(0-inf) ([18]; po, 5 mg/kg): 1790 ng·h/mL
AUC(0-t) ([18]; po, 5 mg/kg): 1660 ng·h/mL
Cmax ([18]; po, 5 mg/kg): 625 ng/mL
half-life ([18]; po, 5 mg/kg): 5.63 h
Cmax [19]: 49300 ng/mL
Cmax ([19]; 50 mg/kg): 18500 ng/mL
Cmax ([20]; 1000 mg/kg/day): 17000 ng/mL
NOAEL ([20]; po): 1000 mg/kg/day
Cmax ([21]; 600 mg/kg/day): 26400 ng/mL
NOAEL ([21]; po): 600 mg/kg/day
IC50 [22]: 30000 nM
activity at 0.1 µM ([22]; […]): 104%
activity at 1 µM ([22]; […]): 101%
activity at 3.33 µM ([22]; […]): 95.4%
activity at 10 µM ([22]; […], 10 μM): 73.9%
activity at 33.3 µM ([22]; […], 33.3 μM): 46.6%
activity at 100 µM ([22]; […], 100 μM): 21.8%
fraction unbound [23]: 0.334
fraction unbound [24]: 0.193
fraction unbound [25]: 0.217
IC50 [26]: ≥ 30000 nM
EC50 [27]: 26 nM
EC50 [28, 35]: 38.7 nM
EC50 ([28]; Severe acute respiratory syndrome coronavirus 2, Vero C1008, read-out: EC50^CP): 43 nM

CC(C)(C)[C@H](NS(C)(=O)=O)C(=O)N1CC2(C[C@H]1C(=O)N[C@H](C#N)C[C@@H]1CCNC1=O)SCCS2 [compound 11]
inhibition at 0.01563 µM [1, 36]: 54%
inhibition at 0.03125 µM [1, 37]: 73.9%
inhibition at 0.5 µM [1, 33]: 94.6%
EC50 [2, 34]: 10400 nM
CC50 [3]: > 500000 nM

CC(C)(C)NC(=O)N[C@H](C(=O)N1C[C@H]2[C@@H]([C@H]1C(=O)NC(CC1CCC1)C(=O)C(N)=O)C2(C)C)C(C)(C)C (stereo partly drawn) [boceprevir, reference compound]
inhibition at 50 µM ([1]; 50000.00 nM, read-out: inhibition ratio (%)): 90.9%
inhibition at 100 µM ([1]; 100000.00 nM, read-out: inhibition ratio (%)): 97.1%
inhibition at 25 µM ([1]; […], read-out: inhibition ratio (%)): 82.4%

CC(=O)/C=C/[C@H](C[C@@H]1CCNC1=O)NC(=O)[C@@H]1[C@@H]2[C@H](CN1C(=O)[C@@H](NC(=O)NC(C)(C)C)C(C)(C)C)C2(C)C [compound 3]
IC50 ([1]; IC50): 14 nM
IC50 ([1]; IC50 (nM)): 12 nM and 17 nM and 14 nM
inhibition at 0.01563 µM [1, 38]: 52.7%
inhibition at 0.03125 µM [1, 31]: 85.4%
inhibition at 0.5 µM [1, 32]: 101%
inhibition at 1 µM ([1]; read-out: inhibition ratio (%)): 99.6%
reversibility of SARS-CoV-2 3CLpro inhibition [29]: irreversible
GSHt1/2 (half-life of the electrophile warhead to react with glutathione) [30]: 0.25 h

CC(C)(C)NC(=O)N[C@H](C(=O)N1CC[C@@H](Oc2ccccc2)[C@H]1C(=O)N[C@H](C#N)C[C@@H]1CCNC1=O)C(C)(C)C [compound 4]
IC50 ([1]; IC50): 6940 nM
IC50 ([1]; IC50 (nM)): 7170 nM and 7720 nM and 5940 nM
inhibition at 3.125 µM ([1]; read-out: inhibition ratio (%)): 31.2%
inhibition at 50 µM [1, 39]: 91.2%
inhibition at 100 µM [1, 40]: 96.8%
inhibition at 25 µM [1, 41]: 86%

CC/C(=C(\c1ccccc1)c1ccc(OCCN(C)C)cc1)c1ccccc1 [Tamoxifen]
% of vehicle control ([7]; 0.206 μM): 109.51%
% of vehicle control ([7]; 5.56 μM): 81.38% and 83.81% and 90.39%
% of vehicle control ([7]; 16.67 μM): 0.08% and 0.0644% and 0.0757%
% of vehicle control ([7]; 50 μM): 0.06% and 0.05%
% of vehicle control ([7]; 150 μM): 0.0474% and 0.03% and 0.04%

CC(C)(C)NC(=O)N[C@H](C(=O)N1C[C@H]2[C@@H]([C@H]1C(=O)N[C@H](C#N)C[C@@H]1CCNC1=O)C2(C)C)C(C)(C)C [compound 2]
inhibition at 0.03125 µM [1, 31]: 59.6%
inhibition at 0.5 µM [1, 32]: 100%
EC50 [2, 35]: 7400 nM
EC50 ([2]; Severe acute respiratory syndrome coronavirus 2, Vero C1008, read-out: EC50 (nM), single independent experiment): 5890 nM
EC50 ([2]; read-out: EC50^CP): 319 nM
GSHt1/2 (half-life of the electrophile warhead to react with glutathione) [30]: 16 h
CC50 [3]: > 500000 nM

CC(C)(C)[C@H](NS(=O)(=O)C1CC1)C(=O)N1CC2(C[C@H]1C(=O)N[C@H](C#N)C[C@@H]1CCNC1=O)SCCS2 [compound 12]
inhibition at 0.01563 µM [1, 36]: 72.8%
inhibition at 0.03125 µM [1, 37]: 86.6%
inhibition at 0.5 µM [1, 33]: 97.9%
EC50 [2, 34]: 10700 nM
CC50 [3]: > 500000 nM

CC(C)(C)NC(=O)N[C@H](C(=O)N1CC2(C[C@H]1C(=O)N[C@H](C#N)C[C@@H]1CCNC1=O)SCCS2)C(C)(C)C [compound 7]
inhibition at 0.01563 µM [1, 38]: 28.1%
inhibition at 0.5 µM [1, 32]: 97.8%
EC50 [2, 34]: 30000 nM
EC50 ([2]; read-out: EC50^CP): 220 nM
CC50 [3]: > 500000 nM

CC(C)(C)NC(=O)N[C@H](C(=O)N1C[C@@H](Sc2ccccc2)C[C@H]1C(=O)N[C@H](C#N)C[C@@H]1CCNC1=O)C(C)(C)C [compound 6]
IC50 ([1]; IC50): 7210 nM
IC50 ([1]; IC50 (nM)): 6060 nM and 8400 nM and 7190 nM
inhibition at 3.125 µM ([1]; read-out: inhibition ratio (%)): 22.4%
inhibition at 50 µM [1, 39]: 90.5%
inhibition at 100 µM [1, 40]: 97.7%
inhibition at 25 µM [1, 41]: 81.8%

CC(C)(C)NC(=O)N[C@H](C(=O)N1C[C@H]2[C@@H]([C@H]1C(=O)N[C@H](C=O)C[C@@H]1CCNC1=O)C2(C)C)C(C)(C)C [compound 1]
inhibition at 0.01563 µM [1, 38]: 72.2%
inhibition at 0.03125 µM [1, 31]: 81.7%
inhibition at 1 µM ([1]; read-out: inhibition ratio (%)): 99.4%
GSHt1/2 (half-life of the electrophile warhead to react with glutathione) [30]: 1.68 h

CC(C)(C)[C@H](NC(=O)C(F)(F)F)C(=O)N1C[C@H]2[C@@H]([C@H]1C(=O)N[C@H](C#N)C[C@@H]1CCNC1=O)C2(C)C [nirmatrelvir, reference compound]
EC50 ([2]; read-out: EC50^CP): 30 nM
